Measured values published in patent publication US20220024879A1, “COMPOUNDS FOR TREATMENT OF HEPACI VIRUS INFECTION AND METHOD FOR DETERMINING THERAPY OF HEPACI VIRUS INFECTION, IN PARTICULAR, HCV INFECTION” (priority 2018, published 2022).

How the values were obtained:
J8 (GT2b) = type: cell-based
JcR2a = assay: HCV whole life cycle compound screening assay; type: cell-based, Hepatitis C virus; settings: Jc1 reporter virus, versus flunarizine
[1] = test system: low pH-triggered HCV cell membrane fusion; assay: Fusion at the plasma membrane assay; type: cell-based, Hepatitis C virus; settings: 5 nM Con A, pH 5.0 wash 5 minutes
Jc1/J8-E1_R3 = type: cell-based; settings: Aa 267-312
JcR2a/J8-E1-R3.2_4 aa = type: cell-based, Hepatitis C virus; settings: M290A, W299N, V301T, P310Q
[2] = test system: low pH-triggered HCV cell membrane fusion; settings: earlier work of the applicant, data not shown; cited from earlier work
JcR2a-Flun-R [3] = settings: Jc1 passaged in presence of flunarizine; Perin et al.; cited from earlier work
Jc1R2a/J8-E1 chimera = type: cell-based; settings: entire E1 replaced
[4] = test system: Jc1 and HCV strains Con1 (GT1b), J8 (GT2b), S52 (GT3a), ED43 (GT4a), SA13 (GT5a), HK6a (GT6a) and QC69 (GT7a); type: cell-based; settings: Jc1 versus GT1b, 2b, 3a, 4a, 5a, 6a, 7a strains
JcR2a/J8-E1_R1 = type: cell-based; settings: Aa 192-230
JcR2a-E1 R4 = type: cell-based; settings: 313-383
JcR2a-Flun-R [5] = type: cell-based

p-methoxy-flunarizine
resistance of J8 (GT2b) (in words) (J8 (GT2b)): pronounced resistance
dose at which cell viability of treated cells was reduced by 50% (Huh-7.5-fluc cells): 9.6 µM
antiviral activity, effect of the substituent (SAR, in words) (JcR2a): beneficial

COc1ccc(-c2cc(=O)c3c(O)c(O)c(OC)cc3o2)cc1 [BJ486K]
inhibition of HCV infection when administered only during the low pH washing step [1]: did not inhibit HCV infection

Fc1ccc(C(c2ccc(F)cc2)N2CCN(C/C=C/c3ccccc3)CC2)cc1 [flunarizine]
susceptibility of chimera with J8 E1 region R3 (in words) (Jc1/J8-E1_R3): resistance profile comparable to Jc1 encoding the flunarizine resistance mutations
resistance of JcR2a/J8-E1-R3.2_4 aa, shift of the IC50 versus parental JcR2a (JcR2a/J8-E1-R3.2_4 aa): 8 fold
resistance of J8 (GT2b) (in words) (J8 (GT2b)): pronounced resistance
antiviral activity when applied only during the 5 minute low pH wash [2]: full antiviral activity
resistance conferred by three mutations in E1 and E2 (JcR2a-Flun-R [3]): ca. 50 fold
susceptibility of chimeric virus with J8-derived E1 (in words) (Jc1R2a/J8-E1 chimera): resistant
strain-dependent antiviral activity (in words) [4]: preferentially inhibited Jc1
susceptibility of chimera with J8 E1 region R1 (in words) (JcR2a/J8-E1_R1): partial resistance
susceptibility of chimera with J8 E1 region R4 (in words) (JcR2a-E1 R4): partial resistance

CN1CCN(C(c2ccccc2)c2ccc(Cl)cc2)CC1 (centres unmarked) [chlorcyclizine]
resistance of JcR2a/J8-E1-R3.2_4 aa, shift of the IC50 versus parental JcR2a (JcR2a/J8-E1-R3.2_4 aa): 6 fold
resistance of J8 (GT2b) (in words) (J8 (GT2b)): pronounced resistance
strain-dependent antiviral activity (in words) [4]: preferentially inhibited Jc1

COc1cc(/C=C/C(=O)CC(=O)/C=C/c2ccc(O)c(OC)c2)ccc1O [curcumin]
inhibition of JcR2a-Flun-R compared with JcR2a (in words) (JcR2a-Flun-R [5]): equally inhibited
resistance of JcR2a/J8-E1-R3.2_4 aa, shift of the IC50 versus parental JcR2a (JcR2a/J8-E1-R3.2_4 aa): not
strain-dependent antiviral activity (in words) [4]: similarly active against all tested viruses

C/C(=C\c1ccccc1)CN1CCN(C(c2ccc(F)cc2)c2ccc(F)cc2)CC1 [entry 20]
antiviral activity, effect of the substituent (SAR, in words) (JcR2a): not beneficial
